Laboratory results: patent publication US11180462B2, “Microbiocidal oxadiazole derivatives” (SYNGENTA PARTICIPATIONS AG, priority 2015, dated 2021)

Legend:
[1] = system: Phakopsora Pachyrhizi; assay: Fungicidal activity against Phakopsora pachyrhizi / soybean / leaf disc preventative (Asian soybean rust); assay type: in vivo; settings: foliar, 200 ppm in the applied formulation, soybean leaf disks, compared to untreated control leaf disks, read-out: disease control
In short: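 Preventative soybean leaf-disc test: discs on water agar sprayed with diluted formulated compound, inoculated one day later with spores on the lower surface. Held 24–36 h dark at 20°C, 75% rh, then 12 h light/day; percent disease control versus untreated discs scored 12–14 days after application.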

[2] = system: Glomerella lagenarium (Colletotrichum lagenarium); assay: Fungicidal activity against Glomerella lagenarium (Colletotrichum lagenarium) liquid culture / cucumber / preventative (anthracnose); assay type: cell-based; settings: Colletotrichum orbiculare; 20 ppm in the applied formulation; liquid culture (PDB), growth inhibition measured photometrically after 3 to 4 days; compared to untreated control; read-out: disease control
In short: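 Photometric read-out of fungal growth after 2–7 days, expressed as percent antifungal activity versus untreated check. Cryo-stored conidia in PDB; compound at 20 ppm; dark, 24 °C, 96% RH.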

[3] = system: Puccinia recondita f. Sp. Tritici; assay: Fungicidal activity against Puccinia recondita f. sp. tritici / wheat / leaf disc preventative (brown rust); assay type: in vivo; settings: foliar, 200 ppm in the applied formulation, wheat leaf segments, preventative, compared to untreated control leaf disks, read-out: disease control
In short: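 Preventative leaf-segment test, wheat cv. Kanzler on water agar. Spray compound at 200 ppm, inoculate with spores 1 day later; 19° C., 75% rh, 12/12 h light. Read-out: % disease control vs untreated, 7 to 9 days after application.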

[4] = system: Puccinia recondita f. Sp. Tritici; assay: Fungicidal activity against Puccinia recondita f. sp. tritici / wheat / leaf disc curative (brown rust); assay type: in vivo; settings: foliar, 24 h, 200 ppm in the applied formulation, wheat leaf segments, curative (applied 1 day after inoculation), compared to untreated control leaf disks, read-out: disease control
In short: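 Curative leaf-segment test: compound diluted in water applied 1 day after spore inoculation of cv. Kanzler wheat segments on agar. Conditions 19° C, 75% RH, 12 h/12 h light cycle. Read-out: % disease control relative to untreated check, 6 to 8 days after application.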

COC(C)(C)C(=O)N(C)Cc1ccc(-c2noc(C(F)(F)F)n2)cc1 [Compound 1.782, 2-methoxy-N,2-dimethyl-N-[[4-[5-(trifluoromethyl)-1,2,4-oxadiazol-3-yl]phenyl]methyl]-propanamide]
≥ 80%: pest or weed control at 200 ppm [1] | inhibition of growth at 20 ppm [2] | pest or weed control at 200 ppm [3] | pest or weed control at 200 ppm [4]

COC(C)C(=O)N(Cc1ccc(-c2noc(C(F)(F)F)n2)c(F)c1)OC (stereo not drawn) [Compound 1.783, N-[[3-fluoro-4-[5-(trifluoromethyl)-1,2,4-oxadiazol-3-yl]phenyl]methyl]-N,2-dimethoxy-propanamide]
≥ 80%: pest or weed control at 200 ppm [1] | inhibition of growth at 20 ppm [2] | pest or weed control at 200 ppm [3] | pest or weed control at 200 ppm [4]

CON(Cc1ccc(-c2noc(C(F)(F)F)n2)cc1)C(=O)C(C)(C)O [Compound 1.784, 2-hydroxy-N-methoxy-2-methyl-N-[[4-[5-(trifluoromethyl)-1,2,4-oxadiazol-3-yl]phenyl]methyl]-propanamide]
≥ 80%: pest or weed control at 200 ppm [1] | inhibition of growth at 20 ppm [2] | pest or weed control at 200 ppm [3] | pest or weed control at 200 ppm [4]

CON(Cc1ccc(-c2noc(C(F)(F)F)n2)cc1)C(=O)C(C)O (stereo not drawn) [Compound 1.786, 2-hydroxy-N-methoxy-N-[[4-[5-(trifluoromethyl)-1,2,4-oxadiazol-3-yl]phenyl]methyl]-propanamide]
≥ 80%: pest or weed control at 200 ppm [1] | inhibition of growth at 20 ppm [2] | pest or weed control at 200 ppm [3] | pest or weed control at 200 ppm [4]

CCCOC(=O)N(Cc1ccc(-c2noc(C(F)(F)F)n2)cc1)OC [Compound 2.4, propyl N-methoxy-N-[[4-[5-(trifluoromethyl)-1,2,4-oxadiazol-3-yl]phenyl]methyl]-carbamate]
≥ 80%: pest or weed control at 200 ppm [1] | inhibition of growth at 20 ppm [2] | pest or weed control at 200 ppm [3] | pest or weed control at 200 ppm [4]

COC(=O)ON(Cc1ccc(-c2noc(C(F)(F)F)n2)cc1)C(=O)OC [Compound 2.25, [methoxycarbonyl-[[4-[5-(trifluoromethyl)-1,2,4-oxadiazol-3-yl]phenyl]methyl]-amino]methyl carbonate]
≥ 80%: pest or weed control at 200 ppm [1] | inhibition of growth at 20 ppm [2] | pest or weed control at 200 ppm [3] | pest or weed control at 200 ppm [4]

COCCNC(=O)N(Cc1ccc(-c2noc(C(F)(F)F)n2)cc1)OC [Compound 3.2, 1-methoxy-3-(2-methoxyethyl)-1-[[4-[5-(trifluoromethyl)-1,2,4-oxadiazol-3-yl]phenyl]methyl]-urea]
≥ 80%: pest or weed control at 200 ppm [1] | inhibition of growth at 20 ppm [2] | pest or weed control at 200 ppm [3] | pest or weed control at 200 ppm [4]

CNC(=O)N(Cc1ccc(-c2noc(C(F)(F)F)n2)cc1)OC [Compound 3.4, 1-methoxy-3-methyl-1-[[4-[5-(trifluoromethyl)-1,2,4-oxadiazol-3-yl]phenyl]methyl]urea]
≥ 80%: pest or weed control at 200 ppm [1] | inhibition of growth at 20 ppm [2] | pest or weed control at 200 ppm [3] | pest or weed control at 200 ppm [4]

CON(Cc1ccc(-c2noc(C(F)(F)F)n2)cc1)C(=O)N(C)C [Compound 3.5, 1-methoxy-3,3-dimethyl-1-[[4-[5-(trifluoromethyl)-1,2,4-oxadiazol-3-yl]phenyl]methyl]urea]
≥ 80%: pest or weed control at 200 ppm [1] | inhibition of growth at 20 ppm [2] | pest or weed control at 200 ppm [3] | pest or weed control at 200 ppm [4]

CCON(Cc1ccc(-c2noc(C(F)(F)F)n2)cc1)C(=O)N(C)OC [Compound 3.7, 1-ethoxy-3-methoxy-3-methyl-1-[[4-[5-(trifluoromethyl)-1,2,4-oxadiazol-3-yl]phenyl]methyl]urea]
≥ 80%: pest or weed control at 200 ppm [1] | inhibition of growth at 20 ppm [2] | pest or weed control at 200 ppm [3] | pest or weed control at 200 ppm [4]

CON(Cc1ccc(-c2noc(C(F)(F)F)n2)cc1)C(=O)Nc1ccccc1 [Compound 3.8, 1-methoxy-3-phenyl-1-[[4-[5-(trifluoromethyl)-1,2,4-oxadiazol-3-yl]phenyl]methyl]urea]
≥ 80%: pest or weed control at 200 ppm [1] | inhibition of growth at 20 ppm [2] | pest or weed control at 200 ppm [3] | pest or weed control at 200 ppm [4]

CCC(C)NC(=O)N(Cc1ccc(-c2noc(C(F)(F)F)n2)cc1)OC (stereo not drawn) [Compound 3.9, 1-methoxy-3-sec-butyl-1-[[4-[5-(trifluoromethyl)-1,2,4-oxadiazol-3-yl]phenyl]methyl]urea]
≥ 80%: pest or weed control at 200 ppm [1] | inhibition of growth at 20 ppm [2] | pest or weed control at 200 ppm [3] | pest or weed control at 200 ppm [4]

CCNC(=O)N(Cc1ccc(-c2noc(C(F)(F)F)n2)cc1)OC [Compound 3.12, 3-ethyl-1-methoxy-1-[[4-[5-(trifluoromethyl)-1,2,4-oxadiazol-3-yl]phenyl]methyl]urea]
≥ 80%: pest or weed control at 200 ppm [1] | inhibition of growth at 20 ppm [2] | pest or weed control at 200 ppm [3] | pest or weed control at 200 ppm [4]

CON(Cc1ccc(-c2noc(C(F)(F)F)n2)cc1)C(=O)NCC(C)C [Compound 3.13, 3-isobutyl-1-methoxy-1-[[4-[5-(trifluoromethyl)-1,2,4-oxadiazol-3-yl]phenyl]methyl]urea]
≥ 80%: pest or weed control at 200 ppm [1] | inhibition of growth at 20 ppm [2] | pest or weed control at 200 ppm [3] | pest or weed control at 200 ppm [4]

CON(Cc1ccc(-c2noc(C(F)(F)F)n2)cc1)C(=O)NCc1ccccc1 [Compound 3.15, 3-benzyl-1-methoxy-1-[[4-[5-(trifluoromethyl)-1,2,4-oxadiazol-3-yl]phenyl]methyl]urea]
≥ 80%: pest or weed control at 200 ppm [1] | inhibition of growth at 20 ppm [2] | pest or weed control at 200 ppm [3] | pest or weed control at 200 ppm [4]

CON(Cc1ccc(-c2noc(C(F)(F)F)n2)cc1)C(=O)NC1CCC1 [Compound 3.16, 3-cyclobutyl-1-methoxy-1-[[4-[5-(trifluoromethyl)-1,2,4-oxadiazol-3-yl]phenyl]methyl]urea]
≥ 80%: pest or weed control at 200 ppm [1] | inhibition of growth at 20 ppm [2] | pest or weed control at 200 ppm [3] | pest or weed control at 200 ppm [4]

CCN(C)C(=O)N(Cc1ccc(-c2noc(C(F)(F)F)n2)cc1)OC [Compound 3.17, 1-ethyl-3-methoxy-1-methyl-3-[[4-[5-(trifluoromethyl)-1,2,4-oxadiazol-3-yl]phenyl]methyl]urea]
≥ 80%: pest or weed control at 200 ppm [1] | inhibition of growth at 20 ppm [2] | pest or weed control at 200 ppm [3] | pest or weed control at 200 ppm [4]

CON(Cc1ccc(-c2noc(C(F)(F)F)n2)cc1)C(=O)NC(C)(C)C [Compound 3.19, 3-tert-butyl-1-methoxy-1-[[4-[5-(trifluoromethyl)-1,2,4-oxadiazol-3-yl]phenyl]methyl]urea]
≥ 80%: pest or weed control at 200 ppm [1] | inhibition of growth at 20 ppm [2] | pest or weed control at 200 ppm [3] | pest or weed control at 200 ppm [4]

C=CCNC(=O)N(Cc1ccc(-c2noc(C(F)(F)F)n2)cc1)OC [Compound 3.20, 3-allyl-1-methoxy-1-[[4-[5-(trifluoromethyl)-1,2,4-oxadiazol-3-yl]phenyl]methyl]urea]
≥ 80%: pest or weed control at 200 ppm [1] | inhibition of growth at 20 ppm [2] | pest or weed control at 200 ppm [3] | pest or weed control at 200 ppm [4]

CCCNC(=O)N(Cc1ccc(-c2noc(C(F)(F)F)n2)cc1)OC [Compound 3.21, 1-methoxy-3-propyl-1-[[4-[5 - (trifluoromethyl)-1,2,4-oxadiazol-3-yl]phenyl]methyl]urea]
≥ 80%: pest or weed control at 200 ppm [1] | inhibition of growth at 20 ppm [2] | pest or weed control at 200 ppm [3] | pest or weed control at 200 ppm [4]

CONC(=O)N(Cc1ccc(-c2noc(C(F)(F)F)n2)cc1)OC [Compound 3.22, 1,3-dimethoxy-1-[[4-[5-(trifluoromethyl)-1,2,4-oxadiazol-3-yl]phenyl]methyl]urea]
≥ 80%: pest or weed control at 200 ppm [1] | inhibition of growth at 20 ppm [2] | pest or weed control at 200 ppm [3] | pest or weed control at 200 ppm [4]

CON(Cc1ccc(-c2noc(C(F)(F)F)n2)cc1)C(=O)NC1CCCC1 [Compound 3.23, 3-cyclopentyl-1-methoxy-1-[[4-[5-(trifluoromethyl)-1,2,4-oxadiazol-3-yl]phenyl]methyl]urea]
≥ 80%: pest or weed control at 200 ppm [1] | inhibition of growth at 20 ppm [2] | pest or weed control at 200 ppm [3] | pest or weed control at 200 ppm [4]

CON(Cc1ccc(-c2noc(C(F)(F)F)n2)cc1)C(=O)NCc1ccco1 [Compound 3.24, 3-(2-furylmethyl)-1-methoxy-1-[[4-[5-(trifluoromethyl)-1,2,4-oxadiazol-3-yl]phenyl]methyl]urea]
≥ 80%: pest or weed control at 200 ppm [1] | inhibition of growth at 20 ppm [2] | pest or weed control at 200 ppm [3] | pest or weed control at 200 ppm [4]

CON(C)C(=O)N(Cc1ccc(-c2noc(C(F)(F)F)n2)cc1)CC(F)(F)F [Compound 3.25, 1-methoxy-1-methyl-3-(2,2,2-trifluoroethyl)-3-[[4-[5-(trifluoromethyl)-1,2,4-oxadiazol-3-yl]phenyl]methyl]urea]
≥ 80%: pest or weed control at 200 ppm [1] | inhibition of growth at 20 ppm [2] | pest or weed control at 200 ppm [3] | pest or weed control at 200 ppm [4]
